Like-named read-outs stand apart in the source and are kept apart here.
Assays:
SREBP [1] = assay: SREBP mRNA expression assay in HepG2 cells (RT-PCR); format: cell-based, human; conditions: for Effect on the induction of SREBP mRNA by LG100268: combined with LG100268 300 nM, GSK 2033 500 nM; for Effect on the induction of SREBP mRNA by LG100268 / SREBP mRNA expression compared to the vehicle control: HX 531 100 nM; for SREBP activation Fold induction vs. Control / fold induction at 0.3 µM: HepG2 cells, 300 nM rexinoids, 8 h, SREBP mRNA by RT-PCR, mean ± SD of 3 experiments; for fold induction at 0.3 µM: Homo sapiens, read-out: SREBP activation Fold induction vs. Control; for SREBP mRNA expression compared to the vehicle control: LG100268 300 nM, T0901317 500 nM, alone or combined
Procedure: The goals of our structure–activity relationship (SAR) studies were to explore and discover new scaffolds that not only bind to RXR but also are able to independently modulate both iNOS and SREBP activity in accordance with a previously described screening paradigm. To characterize the effect of the novel rexinoids on SREBP elevation in vitro, HepG2 cells were treated with 300 nM rexinoids for 8 h and SREBP mRNA levels were measured by RT-PCR. SREBP expression ranged from no change to a 4.6-fold induction compared to the vehicle control when treated with the novel compounds. […] Analogs MSU- 41402, 41582, 41407, 41566, 41844, 41845, 42011, and 42166 induced an SREPB mRNA fold expression change of 1–1.5 normalized to a vehicle control, while bexarotene induced an mRNA fold expression change of > 2 (Table 1).
(§1) HepG2 were plated in 6-well plates (1 × 10^6 cells/well) and, after allowing the cells to attach overnight, were treated with 300 nM rexinoids and/or varying concentrations of T0901317 (TOCRIS # 2373), GSK 2033 (TOCRIS # 5694), HX 531 (TOCRIS # 3912) for 8 h. Total RNA was isolated with TRIzol (Invitrogen, Carlsbad, CA) and 2 µg RNA was used to synthesize cDNA using the SuperScript III reverse transcriptase kit (Invitrogen, Carlsbad, CA). Primers (IDT) for SREBP (F: 5′-GCCGGTTGATAGGCAGCTT-3′; R: 5′-GGTGAGTGGCGGAACCATT-3′) and GAPDH (F: 5′-[…]-3′; R: 5′-[…]-3′), the SYBR Green Supermix (Bio-rad Laboratories, Hercules, CA) and the QuantStudio 7 Flex Real-Time PCR system (95 °C for 20 s followed by 40 cycles of 95 °C for 15 s and 60 °C for 1 min were used to detect mRNA expression. Relative SREBP/GAPDH gene expression was calculated by the delta-delta Ct method. To evaluate protein expression by western blotting, HepG2 cells were plated as above and treated with 300 nM of rexinoids for 24 h. Cells were harvested and lysed in RIPA buffer (1 M Tris–Cl, 5 M NaCl, pH 7.4, 0.5 M EDTA, 25 mM sodium deoxycholate, 1% triton-X, 0.1% SDS, 0.0125% aprotinin) with protease inhibitors (1% PMSF/0.5% apoprotein/0.1%leupeptin). Protein concentration was measured using a BCA assay (Sigma-Aldrich). Proteins (10 µg/well) were separated in 10% SDS-PAGE gels and transferred to nitrocellulose membranes. Membranes were incubated with SREBP (Active Motif; 1:1000) and GAPDH (Santa Cruz Biotechnology; 1:8000) primary antibodies followed by anti-rabbit secondary antibodies conjugated to horseradish peroxidase (Cell Signaling). Signal was detected using the ECL Western Blotting Substrate (GE Healthcare), and protein levels quantified using ImageJ.

SREBP [2] = assay: SREBP protein expression in HepG2 cells (western blot); format: cell-based, human; conditions: 300 nM rexinoids, 24 h
Procedure: Although we have confirmed that the iNOS assay correlates with in vivo efficacy, few investigators have used the induction of SREBP in vitro as a biomarker to predict the ability of novel rexinoids to increase triglycerides in vivo. Elevated triglycerides are a side-effect found with many RXR agonists in preclinical models and by bexarotene in humans[13],[14]. […] HepG2 human liver cells were used, as the liver is the major organ that regulates lipid homeostasis.
as §1

[3] = Plasma triglycerides in MMTV-neu mice fed rexinoids; format: in vivo; conditions: MMTV-neu mice fed rexinoids for 10 days, n=5-6 mice/group
Procedure: fold expression triglyceride
Supplemental Fig 1. Correlation of SREPB mRNA expression and triglyceride levels. HepG2 human liver cells were treated with 300 nM of rexinoids for 8 hr,and lysates analyzed by RT-PCR. Triglycerides in plasma from MMTV-neu mice fed rexinoids for10 days were measured using a commercial kit(Abcam). *, p <0.01 vs control; **, p<0.05 vs bex and LG268; n=5-6 mice/group.

iNOS = iNOS inhibition assay (LPS-induced NO production, Griess reaction); format: cell-based, murine; conditions: RAW264.7 cells, 0–1000 nM rexinoids, LPS 1 ng/ml 24 h, NO by Griess assay, mean ± SE of 3 experiments, read-out: iNOS suppression IC50
Procedure: To evaluate the anti-inflammatory effects of the novel rexinoids, we utilized the iNOS suppression assay. Inhibition of iNOS in vitro directly correlates with efficacy in our preclinical model of Kras-driven lung cancer. RAW264.7 macrophage-like cells were treated with 0–1 μM rexinoids and stimulated with 1 ng/mL lipopolysaccharide for 24 h, and then NO was measured in the media.
RAW264.7 cells were plated in 96-well plates (20,000 cells/well). After overnight attachment, cells were treated with twofold serial dilutions (0–1000 nM) of rexinoids. After a 20 min incubation at 37 °C, cells were stimulated with 1 ng/mL LPS for 24 h. NO production was measured in culture medium using the Griess reaction. IC50 values were calculated using GraphPad Prism 8.1.2 software for Windows using a log([nM drug concentration]) vs. response curve fit.

A549 lung cancer cells = assay: MTT proliferation assay; format: cell-based, human; conditions: 0–1 μM rexinoids, 72 hr
Procedure: were treated with 0-1 μM rexinoids for 72 hr. Proliferation was measured using the MTT assay.
MTT Assay. A549 cells were plated in 96-well plates (2,000 cells/well). After overnight attachment, cells were treated with 2 fold dilutions (0-1000 nM rexinoids) for 72 hr. 50 μL 3-(4,5-dimethylthiazol-2-yl)-2,5-diphenyltetrazolium bromide (MTT; Sigma M2128) was added to each well, and cells were incubated at 37 °C for 4 hr. Media was removed and cells were lysed with developing solution (0.04 M HCl in isopropanol). Plates were read at 550 nm.
(also on this page, place not known: 110A549 Cell Proliferation (% DMSO Control) 37°C)

| SMILES | IC50 (iNOS; Mus musculus) | fold induction at 0.3 µM (SREBP [1]; HepG2, 8 h) | also measured |
| --- | --- | --- | --- |
| Cc1cc(C)c(S(=O)(=O)N(Cc2ccc(-c3cccc(S(C)(=O)=O)c3)cc2)Cc2ccc(C(F)(F)F)o2)c(C)c1 [GSK 2033] | – | – | SREBP mRNA expression lowered by (SREBP [1]; HepG2, 8 h, GSK 2033 500 nM alone): ~ 50%; Effect on the induction of SREBP mRNA by LG100268 (SREBP [1]; HepG2, 8 h): partially reversed the induction of SREBP by LG100268 |
| C/C(=C/C=C/C(C)=C/C(=O)O)c1cc(C(C)(C)C)cc(C(C)(C)C)c1OCC(F)F [LG101506] | – | – | SREBP activation Fold induction vs. Control (SREBP [1]): 1.06 ± 0.3 fold; SREBP protein levels compared to DMSO control (SREBP [2]): did not; Plasma triglyceride levels in mice [3]: 1.21 ± 0.1 nmol/µL |
| C=C(c1ccc(C(=O)O)cc1)c1ccc(OCC(C)C)c(C(C)C)c1 [MSU-41405] | 267 ± 32 nM | 1.87 ± 0.3 | – |
| C=C(c1ccc(C(=O)O)cc1)c1cc(C(C)C)c(OCC(C)C)cc1C [MSU-41406] | 252 ± 55 nM | 1.67 ± 0.2 | – |
| C=C(c1ccc(C(=O)O)cc1)c1cc(C(C)(C)C)cc(C(C)(C)C)c1 [MSU-41566] | 239 ± 53 nM | 1.12 ± 0.5 | – |
| Cc1cc2c(cc1C1(c3ccc(C(=O)O)cn3)CC1)C(C)(C)CCC2(C)C [LG100268] | – | – | IC50 (iNOS): 83 ± 14 nM; SREBP mRNA expression compared to the vehicle control (SREBP [1]; HepG2, 8 h): 2.5 fold; SREBP activation Fold induction vs. Control (SREBP [1]): 3.06 ± 0.7 fold; SREBP protein levels compared to DMSO control (SREBP [2]): increased SREBP protein levels; Growth / proliferation of A549 lung cancer cells (A549 lung cancer cells): do not inhibit proliferation; Plasma triglyceride levels in mice [3]: 3.42 ± 0.4 nmol/µL |
| C=C(c1ccc(C(=O)O)cc1)c1cc2c(cc1C)CCCC2(C)C [MSU-41404] | 340 ± 25 nM | 3.07 ± 0.5 | – |
| CC(C)(C)c1cc(N(CC2CC2)c2ccc(C(=O)O)cn2)cc(C(C)(C)C)c1 [MSU-41843] | 274 ± 33 nM | 2.48 ± 1.8 | – |
| CCN(c1cc(C(C)(C)C)cc(C(C)(C)C)c1)c1ncc(C(=O)O)cn1 [MSU-41582] | 295 ± 54 nM | 1.38 ± 0.4 | – |
| CCN(c1ccc(C(=O)O)cn1)c1cc(C(C)(C)C)ccc1C [MSU-41583] | 290 ± 61 nM | 1.59 ± 0.5 | – |
| CCN(c1cc(C(C)(C)C)cc(C(C)(C)C)c1)c1ccc(C(=O)O)cn1 [MSU-41564] | 248 ± 60 nM | 2.62 ± 0.7 | – |
| C=C(c1ccc(C(=O)O)cc1)c1cc(C(C)C)c(OCC)cc1C [MSU-41408] | 300 ± 79 nM | 2.55 ± 0.7 | – |
| CCN(c1ccc(C(=O)O)cc1)c1cc(C(C)(C)C)cc(C(C)(C)C)c1 [MSU-41402] | 343 ± 62 nM | 1.37 ± 0.3 | – |
| CCN(c1ccc(C(=O)O)cc1)c1cc(C(C)C)c(OCC(C)C)cc1C [MSU-41845] | 338 ± 31 nM | 1.45 ± 0.2 | – |
| CCN(c1ccc(C(=O)O)cc1)c1cc(C(C)(C)C)c(OC)c(C(C)(C)C)c1 [MSU-41846] | 347 ± 31 nM | 1.63 ± 0.3 | – |
| C=C(c1ccc(C(=O)O)cc1)c1cc(C(C)C)c(OC(C)C)cc1C [MSU-41407] | 334 ± 17 nM | 1.08 ± 0.1 | – |
| CC(/C=C/[C@@H]1C[C@]1(C)c1ccc2c(c1)C(C)(C)CCC2(C)C)=C\C(=O)O [IRX194204] | – | – | SREBP protein levels compared to DMSO control (SREBP [2]): increased SREBP protein levels |
| CC(C)(C)c1cc(-n2c(C(F)(F)F)nc3cc(C(=O)O)ccc32)cc(C(C)(C)C)c1 [MSU-41567] | 271 ± 92 nM | 1.58 ± 0.2 | – |
| CN1c2ccc([N+](=O)[O-])cc2N=C(c2ccc(C(=O)O)cc2)c2cc3c(cc21)C(C)(C)CCC3(C)C [HX 531] | – | – | SREBP mRNA expression compared to the vehicle control (SREBP [1]; HepG2, 8 h): did not alter SREBP mRNA expression; Effect on the induction of SREBP mRNA by LG100268 (SREBP [1]; HepG2, 8 h): reversed the induction of SREBP by LG100268 |
| CCN(c1cc(C(F)(F)F)cc(C(F)(F)F)c1)c1ccc(C(=O)O)cn1 [MSU-41844] | 389 ± 53 nM | 0.96 ± 0.5 | – |
| O=S(=O)(c1ccccc1)N(CC(F)(F)F)c1ccc(C(O)(C(F)(F)F)C(F)(F)F)cc1 [T0901317] | – | – | SREBP mRNA expression compared to the vehicle control (SREBP [1]; HepG2, 8 h): 2.5 fold |
| C=C(c1ccc(C(=O)O)cc1)c1cc(C(C)(C)C)ccc1OCC [MSU-41403] | 331 ± 45 nM | 2.68 ± 0.2 | – |
| CCOc1c(N(CC)c2ccc(C(=O)O)cc2)cc(C(C)(C)C)cc1C(C)(C)C [MSU-41565] | 366 ± 49 nM | 1.59 ± 0.2 | – |

— paper PMC7746742, “The novel rexinoid MSU-42011 is effective for the treatment of preclinical Kras-driven lung cancer” (Scientific Reports, 2020)
